This is an account of results in patent publication US10464925B2, “Methods to induce targeted protein degradation through bifunctional molecules” (Dana-Farber Cancer Institute, Inc., priority 2015, dated 2019).

One test relates to CCF-STTG1. Nature of the test: Cell viability, ATPlite 72 hours. Type of test: cell-based. The following applies: Homo sapiens. (Cellular ATP, detected with luciferase, serves as a proxy for viable cell number.)
A further test concerns A549. Kind of test: cells. The note with it: Homo sapiens, A549, 72 h.
The next test relates to ZR-75-1_YMB-1. Kind of test: cells. The following applies: 72 h.

As usually defined, the IC50 is the midpoint of a concentration-inhibition curve. Take `Cc1sc2c(c1C)C(c1ccc(Cl)cc1)=N[C@@H](CC(=O)NCCCCCCCCNC(=O)COc1cccc3c1C(=O)N(C1CCC(=O)NC1=O)C3=O)c1nnc(C)n1-2` (some centres unmarked) [dBET6]: the Emax in the test on CCF-STTG1 was 45.8%; with A549 (read-out: Emax (%) A549), 30.9%; in the test with ZR-75-1_YMB-1 (read-out: Emax (%) ZR-75-1_YMB-1), 21.6%. In addition, the IC50 in the test with A549 (read-out: IC50 (nM) A549) came out at 1900 nM; with ZR-75-1_YMB-1 (read-out: IC50 (nM) ZR-75-1_YMB-1), 23.5 nM.
